In publication PMC6437697 (Journal of Medicinal Chemistry, 2019):

How the values were obtained:
Test in all cases: KINOMEscan
Assay type in all cases: binding
Settings in all cases: read-out: % control activity remaining
ACVR2B = target: T1, ACVR2B (Homo sapiens, UniProt Q13705)
T1 construct: purchased Eurofins DiscoverX KINOMEscan

BRAF(V600E) = target: T2, BRAF(V600E) (Homo sapiens, UniProt P15056, V600E)
T2 construct: purchased Eurofins DiscoverX KINOMEscan

FLT3 = target: T3, FLT3 (Homo sapiens, UniProt P36888)
T3 construct: purchased Eurofins DiscoverX KINOMEscan
T3 sequence (P36888 27-993): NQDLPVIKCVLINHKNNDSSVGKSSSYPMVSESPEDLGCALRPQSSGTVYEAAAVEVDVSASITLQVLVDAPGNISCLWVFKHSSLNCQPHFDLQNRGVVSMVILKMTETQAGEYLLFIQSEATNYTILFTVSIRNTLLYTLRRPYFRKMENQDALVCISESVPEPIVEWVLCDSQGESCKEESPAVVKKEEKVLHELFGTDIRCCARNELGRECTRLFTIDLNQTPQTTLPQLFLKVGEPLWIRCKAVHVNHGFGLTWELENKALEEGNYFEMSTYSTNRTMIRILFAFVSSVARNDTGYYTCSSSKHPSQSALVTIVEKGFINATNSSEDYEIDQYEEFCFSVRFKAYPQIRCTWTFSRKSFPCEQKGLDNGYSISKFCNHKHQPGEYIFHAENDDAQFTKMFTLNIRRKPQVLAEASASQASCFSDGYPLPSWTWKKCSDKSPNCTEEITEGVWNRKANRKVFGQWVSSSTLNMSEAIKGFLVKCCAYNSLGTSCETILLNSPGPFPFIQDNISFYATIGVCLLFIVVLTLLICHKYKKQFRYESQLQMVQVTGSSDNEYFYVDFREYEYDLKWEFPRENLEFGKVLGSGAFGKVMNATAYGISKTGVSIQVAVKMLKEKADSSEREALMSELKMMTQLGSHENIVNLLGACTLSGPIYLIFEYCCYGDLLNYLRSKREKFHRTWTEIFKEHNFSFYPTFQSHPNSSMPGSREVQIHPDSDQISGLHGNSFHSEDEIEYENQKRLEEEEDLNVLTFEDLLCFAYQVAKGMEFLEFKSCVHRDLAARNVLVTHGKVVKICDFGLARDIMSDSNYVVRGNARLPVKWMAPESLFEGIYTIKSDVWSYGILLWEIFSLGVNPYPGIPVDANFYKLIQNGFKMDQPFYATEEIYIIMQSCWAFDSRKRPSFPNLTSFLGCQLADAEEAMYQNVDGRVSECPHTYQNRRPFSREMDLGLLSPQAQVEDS

HIPK3 = target: T4, HIPK3 (Homo sapiens, UniProt Q9H422)
T4 construct: purchased Eurofins DiscoverX KINOMEscan
T4 sequence (Q9H422 whole entry): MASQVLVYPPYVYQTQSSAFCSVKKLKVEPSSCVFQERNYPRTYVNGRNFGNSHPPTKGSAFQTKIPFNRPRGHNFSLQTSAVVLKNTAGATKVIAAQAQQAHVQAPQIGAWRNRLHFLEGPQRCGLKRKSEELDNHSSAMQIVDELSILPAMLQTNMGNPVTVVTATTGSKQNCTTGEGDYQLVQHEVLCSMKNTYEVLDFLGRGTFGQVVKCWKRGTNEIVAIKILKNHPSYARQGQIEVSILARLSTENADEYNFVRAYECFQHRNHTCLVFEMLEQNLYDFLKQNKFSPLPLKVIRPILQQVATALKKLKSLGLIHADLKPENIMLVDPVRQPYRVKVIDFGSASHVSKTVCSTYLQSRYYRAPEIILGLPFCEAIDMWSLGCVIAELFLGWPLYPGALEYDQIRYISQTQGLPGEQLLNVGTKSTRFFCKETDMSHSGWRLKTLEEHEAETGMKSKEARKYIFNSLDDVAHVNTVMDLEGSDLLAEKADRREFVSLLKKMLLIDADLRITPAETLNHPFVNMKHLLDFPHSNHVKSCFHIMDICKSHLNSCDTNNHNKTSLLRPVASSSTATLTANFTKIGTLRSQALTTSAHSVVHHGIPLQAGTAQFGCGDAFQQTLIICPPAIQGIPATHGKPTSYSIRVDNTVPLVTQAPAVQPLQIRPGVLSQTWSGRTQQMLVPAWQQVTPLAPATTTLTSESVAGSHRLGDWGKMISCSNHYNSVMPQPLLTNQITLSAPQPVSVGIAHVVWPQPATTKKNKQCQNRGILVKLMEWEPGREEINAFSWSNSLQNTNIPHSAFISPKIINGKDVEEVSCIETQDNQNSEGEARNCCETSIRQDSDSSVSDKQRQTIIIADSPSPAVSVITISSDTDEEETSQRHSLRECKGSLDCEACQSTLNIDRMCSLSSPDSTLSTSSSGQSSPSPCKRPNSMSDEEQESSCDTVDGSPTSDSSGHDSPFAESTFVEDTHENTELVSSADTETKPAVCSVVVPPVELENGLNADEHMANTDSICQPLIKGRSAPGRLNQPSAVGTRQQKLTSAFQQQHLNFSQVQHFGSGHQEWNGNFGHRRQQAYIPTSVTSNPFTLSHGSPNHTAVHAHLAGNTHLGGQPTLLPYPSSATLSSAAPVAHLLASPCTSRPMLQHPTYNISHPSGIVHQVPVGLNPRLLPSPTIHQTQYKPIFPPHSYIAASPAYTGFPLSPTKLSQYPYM

MAP3K15 = target: T5, MAP3K15 (Homo sapiens, UniProt Q6ZN16)
T5 construct: purchased Eurofins DiscoverX KINOMEscan
T5 sequence (Q6ZN16 1-1313): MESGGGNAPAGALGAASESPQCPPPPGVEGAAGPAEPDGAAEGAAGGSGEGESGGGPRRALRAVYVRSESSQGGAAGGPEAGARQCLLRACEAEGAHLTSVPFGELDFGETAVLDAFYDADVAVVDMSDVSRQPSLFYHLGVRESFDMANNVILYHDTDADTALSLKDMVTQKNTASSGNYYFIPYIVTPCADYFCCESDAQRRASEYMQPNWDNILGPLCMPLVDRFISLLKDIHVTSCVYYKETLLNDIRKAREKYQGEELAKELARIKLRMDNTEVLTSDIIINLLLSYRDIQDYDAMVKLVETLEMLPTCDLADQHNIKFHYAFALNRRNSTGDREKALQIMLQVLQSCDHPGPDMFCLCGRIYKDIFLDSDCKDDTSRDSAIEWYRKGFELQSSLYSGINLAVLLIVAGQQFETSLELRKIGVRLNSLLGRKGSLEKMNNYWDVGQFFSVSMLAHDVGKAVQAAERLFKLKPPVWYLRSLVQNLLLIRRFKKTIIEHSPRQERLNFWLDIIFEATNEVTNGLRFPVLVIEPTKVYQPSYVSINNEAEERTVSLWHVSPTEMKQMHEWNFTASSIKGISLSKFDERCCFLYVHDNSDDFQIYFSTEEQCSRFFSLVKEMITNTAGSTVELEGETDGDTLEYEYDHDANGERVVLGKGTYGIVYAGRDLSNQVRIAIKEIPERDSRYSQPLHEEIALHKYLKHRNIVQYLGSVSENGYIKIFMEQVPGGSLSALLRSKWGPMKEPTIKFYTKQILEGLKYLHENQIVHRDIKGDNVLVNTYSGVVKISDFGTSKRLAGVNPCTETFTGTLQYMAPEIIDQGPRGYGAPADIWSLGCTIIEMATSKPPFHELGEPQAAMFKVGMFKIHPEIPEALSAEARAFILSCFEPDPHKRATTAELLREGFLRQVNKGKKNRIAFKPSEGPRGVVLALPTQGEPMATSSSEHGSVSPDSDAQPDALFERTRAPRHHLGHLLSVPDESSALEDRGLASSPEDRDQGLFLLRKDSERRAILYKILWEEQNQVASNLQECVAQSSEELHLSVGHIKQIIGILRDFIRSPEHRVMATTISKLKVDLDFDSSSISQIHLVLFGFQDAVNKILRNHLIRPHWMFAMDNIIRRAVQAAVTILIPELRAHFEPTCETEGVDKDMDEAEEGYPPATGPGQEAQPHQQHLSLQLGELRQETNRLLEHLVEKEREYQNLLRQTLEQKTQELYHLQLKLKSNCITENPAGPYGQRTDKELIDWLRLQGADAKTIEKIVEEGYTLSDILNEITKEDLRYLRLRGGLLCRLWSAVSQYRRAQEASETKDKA

RET(V804L) = target: T6, RET(V804L) (Homo sapiens, UniProt P07949, V804L)
T6 construct: purchased Eurofins DiscoverX KINOMEscan
T6 sequence (P07949 29-1114 V804L): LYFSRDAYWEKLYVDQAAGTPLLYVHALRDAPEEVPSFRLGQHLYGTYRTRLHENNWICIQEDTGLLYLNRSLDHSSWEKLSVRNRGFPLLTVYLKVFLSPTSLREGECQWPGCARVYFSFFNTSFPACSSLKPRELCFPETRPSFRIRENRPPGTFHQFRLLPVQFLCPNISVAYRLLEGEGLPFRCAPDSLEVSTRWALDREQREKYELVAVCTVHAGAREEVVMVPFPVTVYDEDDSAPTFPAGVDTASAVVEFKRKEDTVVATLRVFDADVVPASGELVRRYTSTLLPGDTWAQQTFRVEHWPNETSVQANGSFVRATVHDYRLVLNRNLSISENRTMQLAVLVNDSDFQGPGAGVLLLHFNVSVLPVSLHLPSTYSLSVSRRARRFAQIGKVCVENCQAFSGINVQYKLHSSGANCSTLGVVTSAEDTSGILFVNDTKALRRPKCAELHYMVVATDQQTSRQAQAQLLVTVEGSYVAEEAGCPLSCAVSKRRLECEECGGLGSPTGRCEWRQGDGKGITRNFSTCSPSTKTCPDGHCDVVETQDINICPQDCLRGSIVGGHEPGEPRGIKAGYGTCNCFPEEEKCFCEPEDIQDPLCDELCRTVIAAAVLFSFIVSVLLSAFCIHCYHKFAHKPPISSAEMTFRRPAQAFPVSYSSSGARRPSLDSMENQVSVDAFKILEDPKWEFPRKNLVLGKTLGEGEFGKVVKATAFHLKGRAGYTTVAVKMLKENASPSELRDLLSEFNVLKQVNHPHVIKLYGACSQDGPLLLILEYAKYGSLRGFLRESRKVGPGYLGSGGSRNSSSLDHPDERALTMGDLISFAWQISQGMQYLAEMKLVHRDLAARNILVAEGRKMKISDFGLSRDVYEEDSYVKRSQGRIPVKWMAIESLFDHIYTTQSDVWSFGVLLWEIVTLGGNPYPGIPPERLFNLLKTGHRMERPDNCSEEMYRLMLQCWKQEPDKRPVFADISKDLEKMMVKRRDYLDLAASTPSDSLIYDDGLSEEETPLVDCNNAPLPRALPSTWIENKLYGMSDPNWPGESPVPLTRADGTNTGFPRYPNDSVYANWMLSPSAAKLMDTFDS

RIOK3 = target: T7, RIOK3 (Homo sapiens, UniProt O14730)
T7 construct: purchased Eurofins DiscoverX KINOMEscan
T7 sequence (O14730 1-519): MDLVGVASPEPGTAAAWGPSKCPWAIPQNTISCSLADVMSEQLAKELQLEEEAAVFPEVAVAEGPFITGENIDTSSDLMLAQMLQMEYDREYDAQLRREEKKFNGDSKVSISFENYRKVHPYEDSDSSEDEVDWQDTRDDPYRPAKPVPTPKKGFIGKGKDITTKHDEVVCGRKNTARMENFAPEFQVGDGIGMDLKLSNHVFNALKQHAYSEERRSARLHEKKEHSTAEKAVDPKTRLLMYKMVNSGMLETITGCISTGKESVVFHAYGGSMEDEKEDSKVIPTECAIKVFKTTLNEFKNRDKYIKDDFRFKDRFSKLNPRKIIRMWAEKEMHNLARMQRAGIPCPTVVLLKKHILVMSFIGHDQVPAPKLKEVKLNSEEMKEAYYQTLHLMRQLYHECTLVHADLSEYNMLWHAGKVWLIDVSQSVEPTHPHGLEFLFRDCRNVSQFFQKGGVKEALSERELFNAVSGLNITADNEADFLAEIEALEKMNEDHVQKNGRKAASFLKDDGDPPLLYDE

T2 sequence (P15056 whole entry V600E): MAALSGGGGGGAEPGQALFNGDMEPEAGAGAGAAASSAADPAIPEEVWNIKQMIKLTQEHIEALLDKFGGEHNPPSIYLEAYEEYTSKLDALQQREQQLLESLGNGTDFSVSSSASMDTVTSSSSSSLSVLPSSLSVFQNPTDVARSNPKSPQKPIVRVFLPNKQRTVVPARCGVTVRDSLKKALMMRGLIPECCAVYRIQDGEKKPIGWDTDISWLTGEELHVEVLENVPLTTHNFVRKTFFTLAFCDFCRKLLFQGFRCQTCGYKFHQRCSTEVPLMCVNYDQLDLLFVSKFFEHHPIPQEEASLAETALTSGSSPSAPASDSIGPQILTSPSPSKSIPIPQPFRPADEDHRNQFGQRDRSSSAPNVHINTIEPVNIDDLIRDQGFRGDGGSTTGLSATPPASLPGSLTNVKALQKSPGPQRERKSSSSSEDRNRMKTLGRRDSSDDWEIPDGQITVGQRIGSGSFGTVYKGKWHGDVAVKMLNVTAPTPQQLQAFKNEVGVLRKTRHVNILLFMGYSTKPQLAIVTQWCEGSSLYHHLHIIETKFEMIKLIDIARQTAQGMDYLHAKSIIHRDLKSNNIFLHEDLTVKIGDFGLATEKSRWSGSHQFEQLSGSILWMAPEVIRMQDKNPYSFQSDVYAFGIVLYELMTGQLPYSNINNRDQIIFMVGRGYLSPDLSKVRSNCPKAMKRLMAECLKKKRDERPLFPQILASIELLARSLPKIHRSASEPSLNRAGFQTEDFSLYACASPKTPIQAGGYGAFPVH
T1 sequence (Q13705 19-512): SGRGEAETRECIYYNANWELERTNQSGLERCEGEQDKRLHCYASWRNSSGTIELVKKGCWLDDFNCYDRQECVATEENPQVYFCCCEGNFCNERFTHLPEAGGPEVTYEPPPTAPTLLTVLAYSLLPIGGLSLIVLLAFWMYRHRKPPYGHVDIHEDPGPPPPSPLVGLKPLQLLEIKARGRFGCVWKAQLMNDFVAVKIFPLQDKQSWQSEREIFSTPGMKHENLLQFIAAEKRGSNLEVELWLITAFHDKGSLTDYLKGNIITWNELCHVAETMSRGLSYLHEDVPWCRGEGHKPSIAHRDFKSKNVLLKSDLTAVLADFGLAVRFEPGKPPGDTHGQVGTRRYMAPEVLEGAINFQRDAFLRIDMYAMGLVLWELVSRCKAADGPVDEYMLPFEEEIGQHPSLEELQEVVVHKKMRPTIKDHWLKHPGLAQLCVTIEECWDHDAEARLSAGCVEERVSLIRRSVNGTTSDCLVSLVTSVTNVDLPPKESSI

| SMILES | remaining binding at 1 µM (ACVR2B) [%] | remaining binding at 1 µM (BRAF(V600E)) [%] | remaining binding at 1 µM (FLT3) [%] | remaining binding at 1 µM (HIPK3) [%] | remaining binding at 1 µM (MAP3K15) [%] | remaining binding at 1 µM (RET(V804L)) [%] | remaining binding at 1 µM (RIOK3) [%] |
| --- | --- | --- | --- | --- | --- | --- | --- |
| Clc1cc(NCC2CC2)c2ncc(-c3ccc4[nH]ncc4c3)n2n1 [compound 2, 6-Chloro-N-(cyclopropylmethyl)-3-(1H-indazol-5-yl)imidazo[1,2-b]pyridazin-8-amine] | 100 | 99 | 2.5 | 63 | 83 | 100 | 31 |
| O=C(CN1CCOCC1)N[C@H]1CC[C@H](Nc2cc(Cl)nn3c(-c4ccc5[nH]ncc5c4)cnc23)CC1 [compound 26] | 99 | 89 | 3 | 2.4 | 98 | 88 | 32 |
| CN1CCC(CNc2cc(Cl)nn3c(-c4cc5nc(Nc6ccccc6)[nH]c5cc4F)cnc23)CC1 [compound 31, 6-Chloro-3-(6-fluoro-2-(phenylamino)-1H-benzo[d]imidazol-5-yl)-N-((1-methylpiperidin-4-yl)methyl)imidazo[1,2-b]pyridazin-8-amine] | 100 | 98 | 83 | 89 | 100 | 92 | 94 |
